From article PMC12269843, “The molecular basis of T cell receptor recognition of citrullinated tenascin-C presented by HLA-DR4” (The Journal of Biological Chemistry, 2025)
Where a SMILES comes first, the peptide text is derived from it.

Columns and labels:
Experiment in all cases: Fluorescence polarization peptide competition assay
HLA-DRB1^∗04:04 = HLA-DRB1^∗04:04 (Homo sapiens, UniProt P01903+P01911, A100R/A169T/F76Y/I96L/K127E/L162R/M171V/N62H/P40V/Q125Y/R42H/S133A/S149N/S66Y/V209L/W38E); settings: competition with 20 nM TAMRA-HA, 100 nM HLA-DRB1, 20 nM HLA-DM, 100 mM trisodium citrate pH 5.4, 50 mM NaCl, 5 mM EDTA, 37 °C, 24-72 h, two independent experiments in triplicate, read-out: IC50, competitive binding to DRB1^∗04:04
Description: (§1) The fluorescent polarization was measured by PHERAstar microplate reader (BMG LABTECH) after 24 h, 48 h and 72 h incubation at 37 °C. The peptide binding curves were plotted by non-linear regression in Prism 10 (GraphPad Software, version 10.2.0) using a sigmoidal dose-response curve. […] All data were derived from two independent experiments in triplicate.
HLA-DRB1^∗04:01 = molecular target: T1, HLA-DRB1^∗04:01 (Homo sapiens, UniProt P01903+P01911, A100K/A169T/F76Y/I96L/K127E/L162R/M171V/N62H/P40V/Q125Y/R42H/S133A/S149N/S66Y/V115G/V209L/W38E); settings: competition with 20 nM TAMRA-HA, 100 nM HLA-DRB1, 20 nM HLA-DM, 100 mM trisodium citrate pH 5.4, 50 mM NaCl, 5 mM EDTA, 37 °C, 24-72 h, two independent experiments in triplicate, read-out: IC50, competitive binding to DRB1^∗04:01
T1 construct: the extracellular domains of the α-chain and β-chain of HLA-DRB1^∗04:01; Fos/Jun leucine zipper (C); invariant chain (CLIP) peptide, covalently linked; made in house
Description: as §1

HLA-DRB1^∗04:05 = HLA-DRB1^∗04:05 (Homo sapiens, UniProt P01903+P01911, A100R/A169T/D86S/F76Y/I96L/K127E/L162R/M171V/N62H/P40V/Q125Y/R42H/S133A/S149N/S66Y/V115G/V209L/W38E); settings: competition with 20 nM TAMRA-HA, 100 nM HLA-DRB1, 20 nM HLA-DM, 100 mM trisodium citrate pH 5.4, 50 mM NaCl, 5 mM EDTA, 37 °C, 24-72 h, two independent experiments in triplicate, read-out: IC50, competitive binding to DRB1^∗04:05
Description: as §1
HLA-DRB1^∗01:01 = HLA-DRB1^∗01:01 (Homo sapiens, UniProt P01903+P01911, A100R/D57E/F55L/F60I/F76Y/I96L/L162R/M171V/P40L/Q125E/R42F/V115G/Y59C); settings: competition with 20 nM TAMRA-HA, 100 nM HLA-DRB1, 20 nM HLA-DM, 100 mM trisodium citrate pH 5.4, 50 mM NaCl, 5 mM EDTA, 37 °C, 24-72 h, two independent experiments in triplicate, read-out: IC50, competitive binding to DRB1^∗01:01
Description: as §1
HLA-DRB1^∗14:02 = HLA-DRB1^∗14:02 (Homo sapiens, UniProt P01903+P01911, A100R/A169T/D57E/F76Y/I96L/K41T/L162R/M171V/P40S/Q125H/Q178H/Q39Y/R42S/S66N/T262R/V115G/W38E/Y61H); settings: competition with 20 nM TAMRA-HA, 100 nM HLA-DRB1, 20 nM HLA-DM, 100 mM trisodium citrate pH 5.4, 50 mM NaCl, 5 mM EDTA, 37 °C, 24-72 h, two independent experiments in triplicate, read-out: IC50, competitive binding to DRB1^∗14:02
Description: as §1

IC50 (HLA-DRB1^∗04:04): > 300000 nM
IC50 (HLA-DRB1^∗04:01): 1140 nM
IC50 (HLA-DRB1^∗04:05): 4810 nM
IC50 (HLA-DRB1^∗01:01): 800 nM
IC50 (HLA-DRB1^∗14:02): 1310 nM
SMILES: CC(C)C[C@H](NC(=O)[C@H](CCCNC(N)=O)NC(=O)[C@H](Cc1ccc(O)cc1)NC(=O)[C@H](CCCNC(N)=O)NC(=O)[C@@H](N)CC(=O)O)C(=O)N[C@@H](CC(N)=O)C(=O)N[C@@H](Cc1ccc(O)cc1)C(=O)N[C@@H](CO)C(=O)N[C@@H](CC(C)C)C(=O)N1CCC[C@H]1C(=O)N[C@H](C(=O)NCC(=O)O)[C@@H](C)O [TNC^1014,1016cit] (HELM PEPTIDE1{D.[Cit].Y.[Cit].L.N.Y.S.L.P.T.G}$$$$V2.0)
